# According to US10131675B2 (Genentech, Inc., priority 2015, dated 2018):
# Molecular target: DLK (Homo sapiens (Human), UniProt Q12852)
# Experiment: DLK TR-FRET Inhibition Assay
# Assay type: biochemical
# Details: N-terminally GST-tagged DLK (catalytic domain amino acid 1-520), MKK4 K131M substrate, 30 μM ATP; read-out: DLK HTRF Ki
# Description: DLK kinase reactions (20 μL) containing 5 nM N-terminally GST-tagged DLK (catalytic domain amino acid 1-520) (Carna Bioscience), 40 nM N-terminally HIS tagged MKK4 K131M substrate, and 30 μM ATP in kinase reaction buffer (50 mM HEPES, pH 7.5, 0.01% Triton X-100, 0.01% Bovine γ-Globulins, 2 mM DTT, 10 mM MgCl2 and 1 mM EGTA), and testing compound 1:3 serial diluted starting at 20 uM were incubated at ambient temperature for 60 minutes in 384 well OptiPlate (Perkin Elmer). To quench kinase reactions and detect phosphorylated MKK4, 15 μL of TR-FRET antibody mixture containing 2 nM anti-phosphorylated MKK4 labeled with Europium cryptate (Cisbio) and 23 nM anti-HIS labeled with D2 (Cisbio) in detection buffer (25 mM Tris pH 7.5, 100 mM NaCl, 100 mM EDTA, 0.01% Tween-20, and 200 mM KF) was added to the reaction mixture. The detection mixture was incubated for 3 hours at ambient temperature and the TR-FRET was detected with an EnVision multilabel plate reader (Perkin-Elmer) using the LANCE/DELFIA Dual Enh label from Perkin-Elmer (excitation filter: UV2 (TRF) 320 and emission filters: APC 665 and Europium 615).
# Chain of DLK (Q12852 1-520): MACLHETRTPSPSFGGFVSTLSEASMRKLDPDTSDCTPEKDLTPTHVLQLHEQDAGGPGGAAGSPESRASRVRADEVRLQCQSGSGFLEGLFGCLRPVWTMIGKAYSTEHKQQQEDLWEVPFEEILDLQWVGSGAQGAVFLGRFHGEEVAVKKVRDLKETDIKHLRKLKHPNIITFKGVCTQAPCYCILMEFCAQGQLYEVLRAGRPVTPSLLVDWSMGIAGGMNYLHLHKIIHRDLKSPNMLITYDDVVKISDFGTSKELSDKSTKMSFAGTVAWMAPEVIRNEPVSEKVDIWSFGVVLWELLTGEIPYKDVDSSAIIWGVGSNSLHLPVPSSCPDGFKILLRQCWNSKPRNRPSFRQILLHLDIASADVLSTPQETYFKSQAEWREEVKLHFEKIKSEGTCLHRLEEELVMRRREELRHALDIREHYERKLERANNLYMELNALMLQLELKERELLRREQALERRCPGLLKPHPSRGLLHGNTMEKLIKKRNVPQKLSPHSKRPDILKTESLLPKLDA
row,Compound,Ki [nM]
1,"CC1(C)OCCn2c1nc1c(N3CC4CC3C4)nc(-c3cnc4[nH]ccc4c3)nc12 [Example 23, 1-(2-Aza-bicyclo[2.1.1]hex-2-yl)-8,8-dimethyl-3-(1H-pyrrolo[2,3-b]pyridin-5-yl)-5,6-dihydro-8H-7-oxa-2,4,4b,9-tetraaza-fluorene]",57.7
2,"CC1(C)OCCn2c1nc1c(N3CC(F)C3)nc(-c3cnc(N)nc3)nc12 [Example 2, 5-[1-(3-Fluoro-azetidin-1-yl)-8,8-dimethyl-5,6-dihydro-8H-7-oxa-2,4,4b,9-tetraaza-fluoren-3-yl]-pyrimidin-2-ylamine]",391
3,"CC1(C)OCCn2c1nc1c(N3CC(O)C3)nc(-c3cnc4[nH]cnc4c3)nc12 [Example 109, 1-(2-(3H-imidazo[4,5-b]pyridin-6-yl)-6,6-dimethyl-8,9-dihydro-6H-[1,4]oxazino[4,3-e]purin-4-yl)azetidin-3-ol]",379
4,"COC1CN(c2nc(-c3cnc4[nH]cnc4c3)nc3c2nc2n3CCOC2(C)C)C1 [Example 111, 2-(3H-imidazo[4,5-b]pyridin-6-yl)-4-(3-methoxyazetidin-1-yl)-6,6-dimethyl-8,9-dihydro-6H-[1,4]oxazino[4,3-e]purine]",885
5,CC(C)c1c[nH]c2ncc(-c3nc(N4CC(F)(F)C4)c4nc5n(c4n3)CCOC5(C)C)cc12 [Example 67],32.7
6,"C[C@H]1COC(C)(C)c2nc3c(N4CC5CC4C5)nc(-c4cnc(N)nc4)nc3n21 (single isomer, unassigned) [Example 97]",62
7,"COCC1CCCN1c1nc(-c2cnc(N)nc2)nc2c1nc1n2CCOC1(C)C (stereo not shown) [Example 1, 5-(4-(2-(methoxymethyl)pyrrolidin-1-yl)-6,6-dimethyl-8,9-dihydro-6H-[1,4]oxazino[4,3-e]purin-2-yl)pyrimidin-2-amine]",392
8,C[C@@H]1O[C@@H](C)Cn2c1nc1c(N3CC4CC3C4)nc(-c3cnc(N)nc3)nc12 [Example 153],261
9,"CC1(C)OCCn2c1nc1c(N3CC4CC3C4)nc(-c3cncc(C(F)(F)F)c3)nc12 [Example 92, 4-(2-azabicyclo[2.1.1]hexan-2-yl)-6,6-dimethyl-2-(5-(trifluoromethyl)pyridin-3-yl)-8,9-dihydro-6H-[1,4]oxazino[4,3-e]purine]",478
10,"C[C@H]1COC(C)(C)c2nc3c(C4CC4)nc(-c4cnc(N)nc4)nc3n21 (single isomer, unassigned) [Example 102]",157
11,CCC(C)Oc1cc(-c2nc(N3CC(F)(F)C3)c3nc4n(c3n2)CCOC4(C)C)cnc1N (stereo not shown) [Example 72],230
12,"CN(c1nc(-c2cnc(N)nc2)nc2c1nc1n2CCOC1(C)C)C1CC1 [Example 60, 2-(2-aminopyrimidin-5-yl)-N-cyclopropyl-N,6,6-trimethyl-8,9-dihydro-6H-[1,4]oxazino[4,3-e]purin-4-amine]",207
13,CC1(C)OCCn2c1nc1c(N3CC4CC3C4)nc(-c3cnc(N)c(C(F)(F)F)c3)nc12 [Example 150],112
14,"CC1(C)OCCn2c1nc1c(N3CC4CC3C[C@@H]4F)nc(-c3cnc(N)nc3)nc12 (single isomer, unassigned) [Example 143]",223
15,"CC1(C)OCCn2c1nc1c(N3CC(O)C3)nc(-c3cnc4[nH]cc(C(F)(F)F)c4c3)nc12 [Example 39, 1-[8,8-Dimethyl-3-(3-trifluoromethyl-1H-pyrrolo[2,3-b]pyridin-5-yl)-5,6-dihydro-8H-7-oxa-2,4,4b,9-tetraaza-fluoren-1-yl]-azetidin-3-ol]",6.79
16,"CC1(C)OCCn2c1nc1c(N3CC4CC3C4)nc(-c3cnc(N)c(C(F)(F)F)c3)nc12 [Example 90, 5-(4-(2-azabicyclo[2.1.1]hexan-2-yl)-6,6-dimethyl-8,9-dihydro-6H-[1,4]oxazino[4,3-e]purin-2-yl)-3-(trifluoromethyl)pyridin-2-amine]",5.98
17,CC1(C)OCCn2c1nc1c(N3CCC(F)(F)C3)nc(-c3cnc4ccnn4c3)nc12 [Example 83],497
18,"CC(C)Oc1cc(-c2nc(N3CC4CC3C4)c3nc4n(c3n2)CCOC4(C)C)cnc1N [Example 22, 5-[1-(2-Aza-bicyclo[2.1.1]hex-2-yl)-8,8-dimethyl-5,6-dihydro-8H-7-oxa-2,4,4b,9-tetraaza-fluoren-3-yl]-3-isopropoxy-pyridin-2-ylamine]",406
19,"CC[C@]1(C)OCCn2c1nc1c(N3CC4CC3C4)nc(-c3cnc(N)nc3)nc12 (single isomer, unassigned) [Example 94]",281

row,Compound,Ki [nM]
1,"CCOc1cc(-c2nc(N3CC4CC3C4)c3nc4n(c3n2)CCOC4(C)C)cnc1N [Example 21, 5-[1-(2-Aza-bicyclo[2.1.1]hex-2-yl)-8,8-dimethyl-5,6-dihydro-8H-7-oxa-2,4,4b,9-tetraaza-fluoren-3-yl]-3-ethoxy-pyridin-2-ylamine]",279
2,"CC1(C)OCCn2c1nc1c(N3CCC(C(F)(F)F)C3)nc(-c3cnc(N)nc3)nc12 (stereo not shown) [Example 28, 5-[8,8-Dimethyl-1-(3-trifluoromethyl-pyrrolidin-1-yl)-5,6-dihydro-8H-7-oxa-2,4,4b,9-tetraaza-fluoren-3-yl]-pyrimidin-2-ylamine]",245
3,"CC1(C)OCCn2c1nc1c(N3CC4CC3C4)nc(-c3cnc(N)c(F)c3)nc12 [Example 36, 5-[1-(2-Aza-bicyclo[2.1.1]hex-2-yl)-8,8-dimethyl-5,6-dihydro-8H-7-oxa-2,4,4b,9-tetraaza-fluoren-3-yl]-3-fluoro-pyridin-2-ylamine]",444
4,"C[C@@H]1CCCN1c1nc(-c2cnc(N)nc2)nc2c1nc1n2CCOC1(C)C [Example 26, 5-[8,8-Dimethyl-1-((R)-2-methyl-pyrrolidin-1-yl)-5,6-dihydro-8H-7-oxa-2,4,4b,9-tetraaza-fluoren-3-yl]-pyrimidin-2-ylamine]",210
5,"CC1(C)OCCn2c1nc1c(N3CC(C#N)C3)nc(-c3cnc4[nH]cnc4c3)nc12 [Example 112, 1-(2-(3H-imidazo[4,5-b]pyridin-6-yl)-6,6-dimethyl-8,9-dihydro-6H-[1,4]oxazino[4,3-e]purin-4-yl)azetidine-3-carbonitrile]",458
6,"C[C@@]1(C2CC2)OCCn2c1nc1c(C3CC3)nc(-c3cnc(N)nc3)nc12 (single isomer, unassigned) [Example 106]",385
7,"CC1(C)OCCn2c1nc1c(N3C[C@H]4CCC(F)(F)[C@H]4C3)nc(-c3cnc(N)nc3)nc12 (racemic) [Example 15, (±)-5-(4-((cis)-4,4-difluorohexahydrocyclopenta[c]-pyrrol-2(1H)-yl)-6,6-dimethyl-8,9-dihydro-6H-[1,4]oxazino[4,3-e]purin-2-yl)pyrimidin-2-amine]",360
8,"CC1(C)OCCn2c1nc1c(N3CC4CC3C4)nc(-c3cnc(N)c(OC(F)F)c3)nc12 [Example 43, 5-[1-(2-Aza-bicyclo[2.1.1]hex-2-yl)-8,8-dimethyl-5,6-dihydro-8H-7-oxa-2,4,4b,9-tetraaza-fluoren-3-yl]-3-difluoromethoxy-pyridin-2-ylamine]",41.8
9,"CC(C)N(c1nc(-c2cnc(N)nc2)nc2c1nc1n2CCOC1(C)C)C1CCC1 [Example 64, 2-(2-aminopyrimidin-5-yl)-N-cyclobutyl-N-isopropyl-6,6-dimethyl-8,9-dihydro-6H-[1,4]oxazino[4,3-e]purin-4-amine]",267
10,"CC1(C)OCCn2c1nc1c(N3CC4CC(F)(F)C4C3)nc(-c3cnc(N)nc3)nc12 (stereo not shown) [Example 10, 5-[1-(6,6-Difluoro-3-aza-bicyclo[3.2.0]hept-3-yl)-8,8-dimethyl-5,6-dihydro-8H-7-oxa-2,4,4b,9-tetraaza-fluoren-3-yl]-pyrimidin-2-ylamine]",157
11,CC1(C)OCCn2c1nc1c(N3CCC(F)(F)C3)nc(-c3cnc(N)c(F)c3)nc12 [Example 82],280
12,"CC1(C)CN(c2nc(-c3cnc(N)nc3)nc3c2nc2n3CCOC2(C)C)C1 [Example 31, 5-[1-(3,3-Dimethyl-azetidin-1-yl)-8,8-dimethyl-5,6-dihydro-8H-7-oxa-2,4,4b,9-tetraaza-fluoren-3-yl]-pyrimidin-2-ylamine]",424
13,"CC1(C)OCCn2c1nc1c(N3CC4CC4C3)nc(-c3cnc(N)nc3)nc12 (stereo not shown) [Example 5, 5-[1-(3-Aza-bicyclo[3.1.0]hex-3-yl)-8,8-dimethyl-5,6-dihydro-8H-7-oxa-2,4,4b,9-tetraaza-fluoren-3-yl]-pyrimidin-2-ylamine]",328
14,"CC1(C)OCCn2c1nc1c(N3CCC4(CCOC4)C3)nc(-c3cnc(N)nc3)nc12 (stereo not shown) [Example 12, 5-[8,8-Dimethyl-1-(2-oxa-7-aza-spiro[4.4]non-7-yl)-5,6-dihydro-8H-7-oxa-2,4,4b,9-tetraaza-fluoren-3-yl]-pyrimidin-2-ylamine]",584
15,"COc1cc(-c2nc(N3CC(F)(F)C3)c3nc4n(c3n2)CCOC4(C)C)cnc1N [Example 65, 5-(4-(3,3-difluoroazetidin-1-yl)-6,6-dimethyl-8,9-dihydro-6H-[1,4]oxazino[4,3-e]purin-2-yl)-3-methoxypyridin-2-amine]",860
16,CC(C)c1c[nH]c2ncc(-c3nc(N4CCC(F)(F)C4)c4nc5n(c4n3)CCOC5(C)C)cc12 [Example 75],112
17,"CO[C@H]1CC2CC1CN2c1nc(-c2cnc(N)nc2)nc2c1nc1n2CCOC1(C)C (single isomer, unassigned) [Example 141]",392
18,CC1(C)OCCn2c1nc1c(N3CC(C#N)C3)nc(-c3cnc4[nH]cc(F)c4c3)nc12 [Example 152],183
